Data published in patent publication US8372598B2 (priority 2010, dated 2013).

Key:
Co-5673 = test: microbe, parasite or virus in culture; type: cell-based, Clostridium
Co-2164 = test: microbe, parasite or virus in culture; type: cell-based, Clostridium
strain Co-9064 = test: MIC for NaCl; type: cell-based, Clostridium species; details: NaCl MIC determination
strain Co-1533 = test: MIC for NaCl; type: cell-based, Clostridium species; details: NaCl MIC determination
strain Co-6232 = test: MIC for NaCl; type: cell-based, Clostridium species; details: NaCl MIC determination
[1] = tested on: mutants of Co-9064 selected as in Example 1; test: Salt MIC / growth on NaCl plates, salt selection mutants as a group; type: cell-based, Clostridium
mutant 11303 = test: Growth on agar plates with varying NaCl; type: cell-based, Clostridium; details: for CFU/ml: 48 hours
mutant 11301 = test: Growth on agar plates with varying NaCl; type: cell-based, Clostridium; details: for CFU/ml: 48 hours
mutant 10277 = test: Growth on agar plates with varying NaCl; type: cell-based, Clostridium; details: for CFU/ml: 48 hours
mutant 10256 = test: Growth on agar plates with varying NaCl; type: cell-based, Clostridium; details: for CFU/ml: 48 hours
[2] = tested on: parent Clostridium strain; test: Growth on agar plates with varying NaCl; type: cell-based; details: for CFU/ml: 48 hours
parent = details: OD600, parent
[3] = tested on: mutants of Co-9064 selected as in Example 1; details: grown at increasing concentrations of butanol, FIGS. 2A and 2B
[4] = Clostridium, 40 min, read-out: Survival (% of control)

CCOS(C)(=O)=O [EMS, ethyl methane sulfonate]
Survival (count) (Co-5673; 30 μg/ml EMS, 40 minutes, 32° C., Co-5673): 3.8 × 10^6 | activity at 30 µg/mL (Co-5673; [4]): 4% | Survival (count) (Co-2164): 5.8 × 10^6 (14%) | higher survival rate in comparison to Co-5673 (Co-2164): 10% | activity at 30 µg/mL (Co-2164; [4]): 14%

[Cl-].[Na+] [NaCl, sodium chloride]
highest concentration at which growth was observed (strain Co-9064): 300 mM | highest concentration at which growth was observed (strain Co-1533): 275 mM | highest concentration of salt at which growth was observed (strain Co-6232): 325 mM | increase of salt tolerance (salt MIC) compared to the parent strain ([1]; mutants versus parent): more than 100 mM | growth up to ([1]; solid medium, four of the mutants): 450 mM | CFU/ml (mutant 11303; NaCl 350 mM): lawn | CFU/ml (mutant 11303; NaCl 400 mM): lawn | CFU/ml (mutant 11303; NaCl 425 mM): 800 CFU/ml | CFU/ml (mutant 11303; NaCl 450 mM): 10 CFU/ml | CFU/ml (mutant 11303; NaCl 475 mM): 0 CFU/ml | grew on plates containing up to (mutant 11303; NaCl plates, mutant 11303): 450 mM | CFU/ml (mutant 11301; NaCl 350 mM): lawn | CFU/ml (mutant 11301; NaCl 400 mM): lawn | CFU/ml (mutant 11301; NaCl 425 mM): 220 CFU/ml | CFU/ml (mutant 11301; NaCl 450 mM): 30 CFU/ml | CFU/ml (mutant 11301; NaCl 475 mM): 0 CFU/ml | grew on plates containing up to (mutant 11301; NaCl plates, mutant 11301): 450 mM | CFU/ml (mutant 10277; NaCl 350 mM): lawn | CFU/ml (mutant 10277; NaCl 400 mM): lawn | CFU/ml (mutant 10277; NaCl 425 mM): 2930 CFU/ml | CFU/ml (mutant 10277; NaCl 450 mM): 150 CFU/ml | CFU/ml (mutant 10277; NaCl 475 mM): 0 CFU/ml | grew on plates containing up to (mutant 10277; NaCl plates, mutant 10277): 450 mM | CFU/ml (mutant 10256; NaCl 350 mM): lawn | CFU/ml (mutant 10256; NaCl 400 mM): lawn | CFU/ml (mutant 10256; NaCl 425 mM): 480 CFU/ml | CFU/ml (mutant 10256; NaCl 450 mM): 20 CFU/ml | CFU/ml (mutant 10256; NaCl 475 mM): 0 CFU/ml | grew on plates containing up to (mutant 10256; NaCl plates, mutant 10256): 450 mM | CFU/ml ([2]; NaCl 350 mM): 6000 CFU/ml | CFU/ml ([2]; NaCl 400 mM): 0 CFU/ml | CFU/ml ([2]; NaCl 425 mM): 0 CFU/ml | CFU/ml ([2]; NaCl 450 mM): 0 CFU/ml | CFU/ml ([2]; NaCl 475 mM): 0 CFU/ml | grew on plates containing up to ([2]; NaCl plates, parent strain): 325 mM | no growth at this NaCl concentration and higher ([2]; solid medium, parent): ≥ 400 mM

n-butanol
% of added n-butanol (v/v) at 50% inhibition (parent): 0.98 % (v/v) | % improvement (mutant #1): 20.89% | % of added n-butanol (v/v) at 50% inhibition (mutant #1): 1.18 % (v/v) | % improvement (mutant #2): 69.96% | % of added n-butanol (v/v) at 50% inhibition (mutant #2): 1.66 % (v/v) | butanol tolerance compared to the parent strain [3]: improved butanol tolerance
